Assay: Pharmacokinetic evaluation in rats following single subcutaneous doses
Assay type: in vivo
Details: male Sprague-Dawley rats, single SC injection of 40 mg in 0.75 mL aqueous diluent, plasma 2 h to 14 d
Description: Species and Strain: Sprague-Dawley rats. Male; 450+/−50 grams.
Study Groups: 4 Groups. 12 subjects
Route of Injection: Subcutaneous (SC) injection into the interscapular region. Injection Vehicle: Aqueous Diluent: Water, 3% CMC low viscosity, 0.1% Tween 20, in 0.9% NaCl Dose Volumes: Dose suspensions were formulated as follows: • Group A: 20 mg powder in 0.75 mL Diluent • Group B: 40 mg microparticles in 0.75 mL Diluent • Group C: 20 mg powder in 0.75 mL Diluent • Group D: 50 mg powder in 0.75 mL Diluent Blood Collection: Blood samples were collected via a lateral tail vein after anesthesia with Halothane. A syringe without an anticoagulant was used for the blood collection, then the whole blood was transferred to tubes containing K2 EDTA and mixing beads (Microtainer®; MFG# BD365974). The blood samples were processed (the tubes are inverted 15–20 times and centrifuged for 2 minutes at >14,000 g's) to separate plasma. The plasma samples prepared in this manner were transferred to labeled plain tubes (Microtainer®; MFG# BD5962) and stored frozen at <−70° C. Blood Volumes: At least 250 μL blood for each time point during the first 24 hours and 400 μL for each time point thereafter.

In the case of haloperidol pamoate [pamoate salt], the “extended release profile (plasma concentrations over time)” value is reported as “good to excellent extended release profiles”.
